According to patent publication US11076595B2, “1-(n,n-disubstituted carbamoyl) 4-(substituted sulfonyl)triazolin-5-one derivative, 4-(n,n-disubstituted carbamoyl) 1-(substituted sulfonyl)triazolin-5-one derivative, and herbicide containing said derivative as active ingredient” (HOKKO CHEMICAL INDUSTRY CO., LTD., priority 2017, dated 2021):

Assays:
Assay type in all cases: in vivo
crabgrass = assay: Test Example 13: herbicidal effect test by soil treatment in upland field; details: 120 g/10a, 14 days after treatment
Experimental: (§1) A pot having a size of 36 cm^2 was filled with field soil (alluvial soil) and after mixing the soil of the surface layer of 1 cm with 20 grains of each weed seed of crabgrass, Echinochloa crus-galli, Chenopodium album and Amaranthus viridis, the surface layer was pressed lightly. One day after the sowing, an emulsifiable concentrate prepared according to Formulation Example 15 by using the compound shown in Table 11 below was diluted with water, and the water-diluted formulation was sprayed on the soil surface at a ratio of 100 liter per 10 are. The application rate of the active ingredient, by conversion, corresponded to 120 g per 10 are. Fourteen Days after the formulation treatment, the herbicidal effect was evaluated by the same criteria as in Test Example 11.

Echinochloa crus-galli [1] = assay: as above; details: 120 g/10a, 14 days after treatment
Experimental: as §1

Chenopodium album = assay: as above; details: 120 g/10a, 14 days after treatment
Experimental: as §1

Amaranthus viridis = assay: as above; details: 120 g/10a, 14 days after treatment
Experimental: as §1

Lindernia pyxidaria [2] = assay: Test Example 12: herbicidal effect test by treatment during growing period in paddy field; details: 120 g/10a; treatment seven days after sowing in flooded paddy pot; assessed 14 days after treatment
In short: (§2)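 Read-out: weed suppression (%) = (1 − treated/untreated mean dry weight) × 100, scored 14 days after treatment with two replications. Pots held puddled paddy soil, 30 seeds per species sown 0–1 cm, flooded ~3 cm. Post-emergence dropwise water application at 7 days after sowing, 120 g a.i./10 are.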

Monochoria vaginalis [3] = assay: as above; details: 120 g/10a; treatment seven days after sowing in flooded paddy pot; assessed 14 days after treatment
In short: as §2

Scirpus juncoides [4] = assay: as above; details: 120 g/10a; treatment seven days after sowing in flooded paddy pot; assessed 14 days after treatment
In short: as §2

Echinochloa crus-galli [5] = assay: as above; details: 120 g/10a; treatment seven days after sowing in flooded paddy pot; assessed 14 days after treatment
In short: as §2

Lindernia pyxidaria [6] = assay: Test Example 11: herbicidal effect test by soil treatment in paddy field; details: 120 g/10a active ingredient, 14 days after treatment
In short: (§3)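 Seeds were sown 0-1 cm deep in puddled, fertilised paddy soil in Wagner pots and kept under about 3 cm of flooding in a greenhouse. Diluted emulsifiable concentrate was added dropwise right after sowing at 120 g a.i. per 10 are. Suppression (%) came from dry weight versus untreated pots after 14 days, two replicates.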

Monochoria vaginalis [7] = assay: as above; details: 120 g/10a active ingredient, 14 days after treatment
In short: as §3

Scirpus juncoides [8] = assay: as above; details: 120 g/10a active ingredient, 14 days after treatment
In short: as §3

Echinochloa crus-galli [9] = assay: as above; details: 120 g/10a active ingredient, 14 days after treatment
In short: as §3

SMILES	herbicidal effect, Crabgrass (crabgrass)	herbicidal effect, Echinochloa crus-galli (Echinochloa crus-galli [1])	herbicidal effect, Chenopodium album (Chenopodium album)	herbicidal effect, Amaranthus viridis (Amaranthus viridis)	Weed suppression rate (%) Lindemia pyxidaria (Lindernia pyxidaria [2])	Weed suppression rate (%) Monochoria vaginalis (Monochoria vaginalis [3])	Weed suppression rate (%) Scirpus juncoides (Scirpus juncoides [4])	Weed suppression rate (%) Echinochloa crus-galli (Echinochloa crus-galli [5])	Weed suppression rate (%) Lindemia pyxidaria (Lindernia pyxidaria [6])	Weed suppression rate (%) Monochoria vaginalis (Monochoria vaginalis [7])	Weed suppression rate (%) Scirpus juncoides (Scirpus juncoides [8])	Weed suppression rate (%) Echinochloa crus-galli (Echinochloa crus-galli [9])
CCN(CC)C(=O)n1cnn(S(=O)(=O)c2ccccc2C)c1=O [Compound 11-622]	80%	90%	40%	40%	50%	50%	50%	90%	40%	0%	40%	90%
CC(C)N(C(=O)n1cnn(S(=O)(=O)C2CCCCC2)c1=O)c1ccccc1F [Compound 11-284]	90%	80%	80%	90%	100%	100%	90%	100%	100%	100%	100%	100%
CC(C)N(C(=O)n1cnn(S(=O)(=O)C2CC2)c1=O)c1ccc(C#N)cc1Cl [Compound 11-222]	90%	80%	80%	90%	80%	80%	90%	90%	80%	80%	90%	90%
CC(C)N(C(=O)n1cnn(S(=O)(=O)c2ccc(Cl)cc2)c1=O)c1ccc(F)cc1F [Compound 11-588]	60%	80%	80%	40%	90%	90%	70%	80%	90%	90%	90%	90%
CC(C)N(C(=O)n1cnn(S(=O)(=O)C(F)(F)F)c1=O)c1ccc(F)cc1F [Compound 11-95]	70%	70%	0%	0%	60%	90%	70%	90%	100%	50%	100%	100%
CC(C)N(C(=O)n1cnn(S(=O)(=O)Cc2ccccc2)c1=O)c1ccc(F)cc1F [Compound 11-944]	90%	90%	0%	0%	90%	90%	90%	90%	100%	100%	90%	90%
CCN(CC)C(=O)n1cnn(S(=O)(=O)c2ccccc2)c1=O [Compound 11-352]	80%	80%	40%	0%	70%	60%	60%	100%	60%	50%	60%	100%
